The results in this text go back to the supplement of paper PMC10307832.

Common to all, as to assay: relative viability (nuclei count vs DMSO), 5 days (fraction); higher = more cells survive
Compound in the assay “Shikonin + Lapatinib”: CC(C)=CC[C@@H](O)C1=CC(=O)c2c(O)ccc(O)c2C1=O [Shikonin] + CS(=O)(=O)CCNCc1ccc(-c2ccc3ncnc(Nc4ccc(OCc5cccc(F)c5)c(Cl)c4)c3c2)o1 [Lapatinib] (partner 2 µM)
The gist of the method:
(§1)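 Nuclei were stained with Hoechst during a one-step fixation (final 0.05% Triton X-100, 1% formaldehyde, 1 ug/ml Hoechst) carried out 5 days after dosing, then counted on 4× images. The cells, lung cancer lines in 1536-well plates, had been dosed by pin tool the day after seeding with one drug alone or a fixed anchor-drug dose plus five library-drug doses (not always all listed) in √10 steps. Relative viability is the nuclei count in treated wells divided by that in vehicle wells, and each value is the median of duplicate plates.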

Compound in assay [1]: CC(C)N(CCCNC(=O)Nc1ccc(C(C)(C)C)cc1)C[C@H]1O[C@@H](n2ccc3c(N)ncnc32)[C@H](O)[C@@H]1O + Nc1ncn([C@H]2C[C@H](O)[C@@H](CO)O2)c(=O)n1 [Decitabine] (partner 2 µM)
The essentials:
as §1

Compound in the assay “Shikonin + Linsitinib”: CC(C)=CC[C@@H](O)C1=CC(=O)c2c(O)ccc(O)c2C1=O [Shikonin] + C[C@]1(O)C[C@@H](c2nc(-c3ccc4ccc(-c5ccccc5)nc4c3)c3c(N)nccn32)C1 [Linsitinib] (partner 1 µM)
The gist of the method: as §1

Compound in assay [2]: CC(C)N(CCCNC(=O)Nc1ccc(C(C)(C)C)cc1)C[C@H]1O[C@@H](n2ccc3c(N)ncnc32)[C@H](O)[C@@H]1O + Cc1cc(Nc2cc(N3CCN(C)CC3)nc(Sc3ccc(NC(=O)C4CC4)cc3)n2)n[nH]1 [Tozasertib] (partner 0.1 µM)
The essentials: as §1

As for UMC-11, the relative viability came to 1 with Shikonin + Lapatinib (first compound 0.01 µM); 1.08 in the assay with Shikonin + Lapatinib (first compound 0.1 µM); 1 with Shikonin + Lapatinib (first compound 0.3162 µM); 1.12 with Shikonin + Lapatinib (first compound 1 µM); 0.584 in assay [1] (first compound 0.08 µM); 0.621 in assay [1] (first compound 0.253 µM). The relative viability in assay [1] (first compound 0.8 µM) was 0.488; in assay [1] (first compound 2.53 µM) it was 0.534; in assay [1] (first compound 8 µM) it was 0.585; with Shikonin + Linsitinib (first compound 0.01 µM), 1.02; with Shikonin + Linsitinib (first compound 0.1 µM), 1.19; with Shikonin + Linsitinib (first compound 0.3162 µM), 1.1. The relative viability came out at 1.13 with Shikonin + Linsitinib (first compound 1 µM); 0.185 in assay [2] (first compound 0.08 µM); 0.193 in assay [2] (first compound 0.253 µM); 0.231 in assay [2] (first compound 0.8 µM); 0.218 in assay [2] (first compound 2.53 µM); 0.175 in assay [2] (first compound 8 µM).
